Calls of active or inactive are those of the source. Rule as the data show it, for most assays here: actives have a measured EC50 and inactives only a lower limit.
Key:
[1] = system: H4; assay: Luminescence Cell-Based Dose Response HTS to Identify Activators of 5'UTR Stem-Loop Driven Prion Protein mRNA Translation in H4 Neuroglioblastoma Cells. [Related pubchem assays: 1829 (Project Summary), 1814 (Primary HTS)]; format: functional; conditions: Homo sapiens
[2] = Luminescence Cell-Based Dose Response HTS to Identify Activators of Luciferase Translation or Activity in H4 […] Cells. [Related pubchem assays: 1829 (Project Summary), 1814 (Primary HTS)]; format: functional
[3] = target: T1, Heat shock factor protein 1 (Mus musculus, UniProt P38532); assay: enhancement of HSF1-driven luciferase signal – cell-based, NIH3T3, luminescence, dose retest, confirmation (AID 435004); format: functional;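 also: stress induced by proteasome inhibitor MG132 added 30 min after compound; luciferase reporter driven by HSF1 response element in NIH3T3 cells; actives raise luminescence as potentiators of the MG132 stress response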
T1 sequence (P38532 whole entry): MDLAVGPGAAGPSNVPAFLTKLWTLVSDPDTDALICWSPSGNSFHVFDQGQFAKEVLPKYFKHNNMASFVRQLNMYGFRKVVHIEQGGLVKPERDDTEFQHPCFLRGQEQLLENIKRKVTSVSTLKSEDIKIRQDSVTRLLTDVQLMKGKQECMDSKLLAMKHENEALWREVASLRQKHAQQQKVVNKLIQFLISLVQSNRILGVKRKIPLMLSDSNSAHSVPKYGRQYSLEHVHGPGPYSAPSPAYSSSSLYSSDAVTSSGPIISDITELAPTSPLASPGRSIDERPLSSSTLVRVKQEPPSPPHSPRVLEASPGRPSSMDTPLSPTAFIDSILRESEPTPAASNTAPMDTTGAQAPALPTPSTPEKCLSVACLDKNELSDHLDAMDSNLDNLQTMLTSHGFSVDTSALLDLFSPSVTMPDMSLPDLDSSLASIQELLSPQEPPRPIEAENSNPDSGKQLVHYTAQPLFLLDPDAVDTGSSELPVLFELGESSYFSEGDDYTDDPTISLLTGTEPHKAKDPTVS

[4] = target: Paired box protein Pax-8 (Homo sapiens, UniProt Q06710); assay: PAX8 transcriptional activity inhibition in RMG-I – RMG-I cells, luciferase, cherry-pick, dose response (AID 687027); format: functional, cell-based;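 also: luciferase reporter driven by Pax8 target thyroperoxidase promoter measured by SteadyGlo luminescence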
[5] = target: T2, Corticotropin-releasing factor receptor 2/Corticotropin-releasing factor-binding protein (Homo sapiens, UniProt P24387+Q13324); assay: activators of CRF receptor 2 with binding protein – uHTS hits, confirmation (AID 602473); format: functional; conditions: read-out: EC50_Mean
T2 sequence (Q13324 whole entry): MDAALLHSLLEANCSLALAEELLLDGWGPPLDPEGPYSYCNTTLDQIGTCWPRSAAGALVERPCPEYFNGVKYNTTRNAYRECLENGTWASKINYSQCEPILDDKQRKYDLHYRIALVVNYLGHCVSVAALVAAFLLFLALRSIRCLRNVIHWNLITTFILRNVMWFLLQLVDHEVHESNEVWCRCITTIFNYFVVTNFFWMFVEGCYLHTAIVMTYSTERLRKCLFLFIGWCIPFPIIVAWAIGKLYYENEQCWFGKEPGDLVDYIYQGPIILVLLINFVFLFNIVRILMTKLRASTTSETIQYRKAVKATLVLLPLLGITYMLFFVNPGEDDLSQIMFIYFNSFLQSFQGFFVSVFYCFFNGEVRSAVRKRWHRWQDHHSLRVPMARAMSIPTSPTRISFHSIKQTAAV
T2 sequence (P24387 whole entry): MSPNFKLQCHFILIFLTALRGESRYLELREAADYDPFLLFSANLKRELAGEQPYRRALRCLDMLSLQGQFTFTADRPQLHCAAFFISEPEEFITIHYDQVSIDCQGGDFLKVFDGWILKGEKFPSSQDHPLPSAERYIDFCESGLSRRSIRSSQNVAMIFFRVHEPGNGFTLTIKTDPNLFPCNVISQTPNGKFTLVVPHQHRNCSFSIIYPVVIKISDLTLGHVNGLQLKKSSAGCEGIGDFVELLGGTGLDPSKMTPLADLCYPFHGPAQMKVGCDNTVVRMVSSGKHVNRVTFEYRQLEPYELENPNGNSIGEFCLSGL

[6] = target: Genome polyprotein (dengue virus type 2, UniProt P29990); assay: flavivirus cap methylation enzyme inhibition – biochemical, confirmation dose response, primary screen (AID 588689); format: functional
[7] = cells; format: functional, cell-based
[8] = cells; format: functional, cell-based; remark: listed apart in the source
[9] = target: T3, Protein skinhead-1 (Caenorhabditis elegans, UniProt P34707); format: functional
T3 sequence (P34707 whole entry): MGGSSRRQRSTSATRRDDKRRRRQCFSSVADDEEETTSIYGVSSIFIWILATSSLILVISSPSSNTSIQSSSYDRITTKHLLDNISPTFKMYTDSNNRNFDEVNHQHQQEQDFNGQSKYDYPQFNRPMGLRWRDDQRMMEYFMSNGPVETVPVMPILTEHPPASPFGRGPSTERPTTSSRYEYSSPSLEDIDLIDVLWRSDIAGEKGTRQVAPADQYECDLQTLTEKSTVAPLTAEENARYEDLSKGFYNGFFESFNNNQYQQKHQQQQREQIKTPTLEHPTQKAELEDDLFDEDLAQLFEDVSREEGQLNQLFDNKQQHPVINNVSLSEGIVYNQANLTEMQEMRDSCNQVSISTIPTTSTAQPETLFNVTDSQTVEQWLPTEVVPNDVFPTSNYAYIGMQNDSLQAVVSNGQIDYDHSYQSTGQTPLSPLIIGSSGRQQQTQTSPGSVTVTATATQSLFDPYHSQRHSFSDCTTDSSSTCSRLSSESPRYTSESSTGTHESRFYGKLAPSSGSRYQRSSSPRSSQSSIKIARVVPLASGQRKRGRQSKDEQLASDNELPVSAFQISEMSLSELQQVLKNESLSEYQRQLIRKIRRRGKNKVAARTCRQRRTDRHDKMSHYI

[10] = viability of uninfected HEp-2 cells – cell-based, HTS, cytotoxicity control for RSV inhibitor project, dose response (AID 2410); format: functional; conditions: human respiratory syncytial virus
[11] = system: INS1; assay: INS-1E survival protection against cytokine death – cell-based, luminescence, retest, dose response (AID 449756); format: functional; conditions: Rattus norvegicus;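 also: cell death triggered by IL-1 beta plus TNF-alpha plus IFN-gamma mixture; protective hits raise ATP signal compared with cytokine alone wells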

Genome polyprotein, sequence (P29990 2492-3391 limits assumed): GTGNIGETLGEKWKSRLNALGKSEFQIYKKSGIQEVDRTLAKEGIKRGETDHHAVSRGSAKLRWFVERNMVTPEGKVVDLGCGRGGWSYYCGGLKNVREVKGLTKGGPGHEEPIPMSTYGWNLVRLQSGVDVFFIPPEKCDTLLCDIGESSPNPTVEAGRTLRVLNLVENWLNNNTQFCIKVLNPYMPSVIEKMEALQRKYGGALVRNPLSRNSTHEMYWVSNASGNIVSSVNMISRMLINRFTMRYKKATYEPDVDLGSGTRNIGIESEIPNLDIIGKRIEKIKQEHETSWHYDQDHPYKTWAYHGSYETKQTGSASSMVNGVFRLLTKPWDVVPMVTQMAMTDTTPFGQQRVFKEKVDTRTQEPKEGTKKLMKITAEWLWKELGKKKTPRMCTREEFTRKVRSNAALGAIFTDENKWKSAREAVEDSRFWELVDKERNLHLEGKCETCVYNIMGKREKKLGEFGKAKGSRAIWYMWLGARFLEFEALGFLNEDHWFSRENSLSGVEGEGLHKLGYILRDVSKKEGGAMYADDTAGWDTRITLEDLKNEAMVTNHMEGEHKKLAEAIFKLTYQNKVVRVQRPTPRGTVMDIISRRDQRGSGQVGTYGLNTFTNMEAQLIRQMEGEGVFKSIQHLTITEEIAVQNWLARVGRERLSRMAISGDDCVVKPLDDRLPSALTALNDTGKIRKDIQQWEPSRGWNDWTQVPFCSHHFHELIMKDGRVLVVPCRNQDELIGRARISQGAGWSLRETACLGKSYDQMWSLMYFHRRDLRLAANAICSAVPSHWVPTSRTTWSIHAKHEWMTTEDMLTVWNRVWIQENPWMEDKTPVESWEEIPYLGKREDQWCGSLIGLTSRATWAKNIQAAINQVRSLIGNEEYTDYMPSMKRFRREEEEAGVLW
Paired box protein Pax-8, sequence (Q06710 whole entry): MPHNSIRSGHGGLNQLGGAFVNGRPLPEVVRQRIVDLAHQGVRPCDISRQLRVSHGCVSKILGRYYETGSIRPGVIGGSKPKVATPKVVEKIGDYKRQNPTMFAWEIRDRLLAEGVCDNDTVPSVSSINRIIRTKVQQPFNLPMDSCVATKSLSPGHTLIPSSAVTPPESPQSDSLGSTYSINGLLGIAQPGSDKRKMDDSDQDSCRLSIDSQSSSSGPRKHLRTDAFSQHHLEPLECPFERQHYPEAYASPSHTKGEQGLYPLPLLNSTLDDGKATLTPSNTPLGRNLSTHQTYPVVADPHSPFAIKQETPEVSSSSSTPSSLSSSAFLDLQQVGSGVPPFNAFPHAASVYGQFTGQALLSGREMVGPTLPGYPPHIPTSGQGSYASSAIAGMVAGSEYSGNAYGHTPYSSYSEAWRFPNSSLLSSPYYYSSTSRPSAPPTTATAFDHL

Structure (SMILES): O=C(Nc1ccc(Cl)c(Cl)c1)c1ccc(Cn2cc(Cl)cn2)cc1
- EC50 [1]: > 120 µM (not active)
- EC50 [2]: 38.1 µM (active)

Structure (SMILES): O=C(C1=C[C@@H](C2CC2)C[C@@H](OCc2ccc(CO)cc2)O1)N1CCN(Cc2ccccc2)CC1
- EC50 [3]: > 260 µM (inactive)

Structure (SMILES): O=C(Nc1ccc(F)cc1)N1CCCCN2[C@@H](CO)[C@@H](c3ccc(-c4cccc(F)c4)cc3)[C@@H]2C1
- AC50 [4]: 21.3 µM (active)

Structure (SMILES): CCCCCCc1cc2cc(C(=O)NC)c(=N)oc2cc1O
- EC50 [5]: 3.06 µM (active)

Structure (SMILES): Nc1n[nH]c(SCC(=O)Nc2ccc([N+](=O)[O-])cc2Br)n1
- EC50 [3]: > 260 µM (inactive)

Structure (SMILES): Cc1noc(NS(=O)(=O)c2ccc(NC(=O)c3ccccc3NS(=O)(=O)c3ccc(F)c(F)c3)cc2)c1C
- IC50 [6]: 33.2 µM (active)

Structure (SMILES): O=C1C2CCCCC2C(=O)N1Cc1ccccc1 (stereo not drawn)
- EC50 [3]: > 260 µM (inactive)

Structure (SMILES): CCOc1ccccc1NC(=O)CSc1ncnc2c1oc1ccccc12
- EC50 [7]: > 350 µM (not active)
- EC50 [8]: > 350 µM (not active)
- IC50 [9]: > 100 µM (inactive)

Structure (SMILES): COc1ccc(C2(C)NC(=O)N(CC3CCCCC3)C2=O)cc1 (stereo not drawn)
- EC50 [3]: > 260 µM (inactive)

Structure (SMILES): O=C1NC(=O)C(=Cc2ccc(N3CCN(C(=O)c4ccccc4)CC3)c([N+](=O)[O-])c2)C(=O)N1
- IC50 [6]: 19.8 µM (active)

Structure (SMILES): CC(C)CC(NS(=O)(=O)c1ccc2c(c1)oc(=O)n2C)C(=O)NC1CCCc2ccccc21 (stereo not drawn)
- EC50 [3]: > 260 µM (inactive)

Structure (SMILES): COc1ccc(/C=C/C(=O)OC2CCCN(C)C2)cc1 (stereo not drawn)
- EC50 [3]: > 260 µM (inactive)

Structure (SMILES): Cc1ccsc1C(=O)N/N=C/c1ccc([N+](=O)[O-])cc1
- EC50 [7]: > 350 µM (not active)
- EC50 [8]: 5.99 µM (active)

Structure (SMILES): C=CCN1C(=O)/C(=C/c2ccc(O)cc2)S/C1=N/c1nccs1
- CC50 [10]: 22.4 µM (active)
- EC50 [5]: > 53 µM (inactive)

Structure (SMILES): CC(=O)c1c(C)[nH]c(C(=O)Nc2cccc(C)n2)c1C
- EC50 [3]: > 260 µM (inactive)

Structure (SMILES): CCOc1ccc2nc(NC(=O)c3cccc(-c4cc5ccccc5oc4=O)c3)sc2c1
- AC50 [11]: 3.24 µM (active)

Structure (SMILES): COc1ccc2nc(NC3=NCCN3)sc2c1
- EC50 [1]: 2.01 µM (active)
- EC50 [2]: 0.778 µM (active)
